Drawing on patent US10548894B2, “Combination therapy” (Array BioPharma Inc., priority 2013, dated 2020), this text covers IC50 and RP2D for two compounds.

In series [1] the test system is A-375 cells expressing mutant MEK1P124L. The experiment in a line: ATP-based CTG (Cell Titer Glo) cell viability assay, 72 h. Particulars: Homo sapiens, A-375 MEK1P124L, single agent. On the procedure:
(§1) Compound stocks are prepared in DMSO at a final concentration of 10 mM. Working stocks are serially diluted in the appropriate cell culture medium in 3-fold increments to achieve final assay concentrations ranging from 2.7 μM to 1.2 nM.
(§2) A-375 and WM-266-4 cells were purchased from American Type Culture Collection (ATCC). The A-375 cells were cultured in DMEM medium (ATCC) and the WM-266-4 cells were cultured in EMEM medium (ATCC) both supplemented with 10% fetal bovine serum (Gibco) and incubated at 37° C./5% CO2. The cell lines engineered to express commonly occurring alleles indicative of resistance were acquired from Novartis-Emeryville. These resistant models include, A-375 cells expressing mutant MEK1P124L, truncated p61-BRAFV600E, or mutant NRASQ61K, and WM-266-4 cells expressing mutant MEK1C121S, truncated p61-BRAFV600E, or mutant NRASQ61K. These cells were cultured in the appropriate parental medium with selection marker G418 and in the presence of 5 uM LFE158 (MEK mutants) or LIH720 (truncated p61-BRAFV600E).
(§3) For screening, cells were seeded in 80 ul of medium in 384-well plates (Thermo Scientific, cat#4332) at 500 (A-375) or 750 (WM-266-4) cell densities per well using a MultiDrop Combi (Thermo-Fisher) with an 8-channel standard cassette. To promote an even distribution of cells across the entire well, cells were briefly centrifuged at 1000 RPM and incubated at room temperature 30 minutes. All plates were incubated at 37° C., 5% CO2 for 24 h prior to compound addition. Compound stock was freshly prepared in the appropriate culture medium, and added using a PAA robot equipped with a 200n1 pin tool. In a minimum of three replicate wells, single agent and combination effects after 72 hours, were assessed by both quantification of cellular ATP levels via Cell Titer Glo (Promega) according to the manufacturer's protocol and by microscopy imaging. For imaging, cells were fixed to the plates and permeabilized with a solution of 10% PFA, 0.3% TX-100 in PBS via a WellMate dispenser with controlled dispensing speeds. Cell nuclei were stained with Hoechst 33342 (H3570, Invitrogen), and all necessary washing steps were performed by a BioTek washer.
(§4) Data comprised triplicate measurements for each treatment (compound) condition, 42 replicates of DMSO-treated wells, and duplicates of Staurosporin-treated wells. The data was normalized to the median of the DMSO measurements and summarized by calculating the median of the triplicates. Data was imported into Chalice to calculate compound synergies.
On the technique in general: In ATP-based viability assays light output follows the ATP content of the culture.

For series [2], the system named is A-375 cells expressing mutant NRASQ61K. The series is described as above. Particulars: Homo sapiens, A-375 NRASQ61K, single agent. On the procedure: as §1, §2, §3, §4
In series [3] the test system is A-375 cells. The series is described as above. To be noted: Homo sapiens, A-375 parent, single agent. On the procedure:
as §1, §2, §3, §4

The test system of series [4] is WM-266-4 cells expressing mutant MEK1C121S. The series is described as above. Particulars: Homo sapiens, WM-266-4 MEK1C121S, single agent. On the procedure: as §1, §2, §3, §4
Series [5] has as its system WM-266-4 cells. Described as above. To be noted: Homo sapiens, WM-266-4 parent, single agent. On the procedure:
as §1, §2, §3, §4

For series [6], the system named is A-375 cells expressing mutant MEK1P124L. The experiment in a line: Microscopy imaging assay (viable nuclei count), 72 h. In kind it is cell-based. Particulars: Homo sapiens, A-375 MEK1P124L, single agent. On the procedure: as §1, §2, §3
(§5) An automated image analysis pipeline was established using custom-made scripts in the open-source, statistical programming language R, and functions of the BioConductor package EBImage. The goal was to quantify the number of viable nuclei (cells) per well as an approximation for cell viability. The pipeline was comprised of seven steps: (I.) smoothing of the image to reduce the number of intensity peaks, (II.) application of a thresholding function to separate the foreground (signal) from the background (noise), (III.) identification of local maxima in the foreground that serve as seeds for the nuclei, (IV.) filtering of local maxima in close proximity, (V.) propagation of the nuclei from remaining local maxima, (VI.) and extraction of object features from the propagated nuclei (numbers of nuclei, size features and intensity features). As a last step (VII.), to exclude debris (e.g. fragmented nuclei) from counting, objects identified in DMSO- and Staurosporin-treated wells were used to obtain feature distributions for viable and fragmented nuclei, respectively. These were used to set cut-offs differentiating between viable and fragmented nuclei. The number of fragmented nuclei was subtracted from the total number of identified objects and the result was reported as final count for that well.
as §4

Series [7] has as its system A-375 cells expressing mutant NRASQ61K. The series is described as above. In kind it is cell-based. To be noted: Homo sapiens, A-375 NRASQ61K, single agent. As to the method:
as §1, §2, §3, §5, §4

Series [8] has as its system A-375 cells. The description is as above. Format: cell-based. Particulars: Homo sapiens, A-375 parent, single agent. As to the method: as §1, §2, §3, §5, §4
Series [9] deals with WM-266-4 cells expressing mutant MEK1C121S. The description is as above. In kind it is cell-based. Particulars: Homo sapiens, WM-266-4 MEK1C121S, single agent. On the procedure:
as §1, §2, §3, §5, §4

Series [10] deals with WM-266-4 cells. The series is described as above. In kind it is cell-based. To be noted: Homo sapiens, WM-266-4 parent, single agent. As to the method: as §1, §2, §3, §5, §4
Series [11] can be described thus: Clinical dose finding and tolerability (RP2D/MTD) in patients. In kind it is in vivo. To be noted: BID, in combination with B-Raf inhibitor of Formula (I) 600 mg. The source says: The selection of the starting dose follows the ICH S9 guidelines for choosing a starting a dose for a first-in-human trial conducted in patients with cancer, and is shown in Table 6-2.
Table 3 describes the starting doses and the provisional dose levels of study treatments for the combinations that may be evaluated during this trial. Additional dose levels not currently specified may be enrolled and additional patients may be enrolled at a dose level already tested if such changes are deemed necessary to provide optimal safety and tolerability, pharmacokinetic, and pharmacodynamic data.

The next series has as its system CL-34. Nature of the series: 72 hr cell titer Glo proliferation assay, BRAFV600E mutant CRC cell lines. Format: cell-based. To be noted: CL-34, single agent. As to the method: (§6) Single agent and combinatorial effects on proliferation of inhibitors of RAF (Compound of Formula (I)) and PIK3Ca (Compound X) kinases in seven BRAF-mutant CRC-derived cell lines. All cell lines express the BRAFV600E protein. Cells harboring known or putative activating mutations in the PI3Kα gene are marked with a (*) and cells with PTEN loss marked with a (#). Cell proliferation was measured in 72 hr cell titer Glo™ assays and all results supplied are the result of at least triplicate measurements. Shown are single agent IC50 values for the Compound of Formula (I) and Compound X. Synergy score (SS) measurements as well as the combination index (C150) at the 50% effect level are given for each combination) in Table 6. Interactions were deemed synergistic when SS values were ≥2.0 and CI values were ≤0.5. Interactions were deemed additive/synergistic when either SS values were ≥2.0 but CI values were >0.5 or SS values were <2.0 but CI values were ≤0.5. Interactions where termed additive when SS values were <2.0 and CI values were >0.5. Synergy calls are given in the “effect description” columns.

A further series has as its system COLO 205. The series is described as above. Format: cell-based. Particulars: COLO 205, single agent. On the procedure: as §6
The subject of the next series is HT-29. The description is as above. Particulars: HT-29 (PI3Kα mutation), single agent. In kind it is cell-based. As to the method: as §6
For the next series, the system named is LS411N. Described as above. Particulars: single agent. In kind it is cell-based. On the procedure:
as §6

The next series deals with OUMS-23. The series is described as above. Format: cell-based. Particulars: OUMS-23 (PTEN loss), single agent. On the procedure: as §6
For another series, the system named is RKO. Described as above. Format: cell-based. To be noted: RKO (PI3Kα mutation), single agent. As to the method: as §6
Another series deals with SNU-C5. The series is described as above. Format: cell-based. Particulars: SNU-C5 (PI3Kα mutation), single agent. As to the method: as §6
The test system of another series is SW1417. The description is as above. Particulars: SW1417, single agent. In kind it is cell-based. On the procedure:
as §6

The structures appear in SMILES notation. Some results are limits rather than exact numbers.

One may read the IC50 as the concentration at which inhibition is half-maximal. For the compound `Cn1cnc2c(F)c(Nc3ccc(Br)cc3F)c(C(=O)NOCCO)cc21` [Compound B], the half-inhibitory concentration (IC50) in series [1] is over 2700 nM; in [2], 206 nM; in the series with A-375 cells [3] it was 51 nM; in series [4], 821 nM; in the series with WM-266-4 cells [5] it was 50 nM; in series [6] it was over 2700 nM. Also, the 50% inhibitory concentration (IC50) in series [7] was found to be 150 nM; with A-375 cells [8] it was 57 nM; in series [9] it was 1210 nM; in the series with WM-266-4 cells [10], 77 nM. Also, the RP2D in series [11] turned out to be 45 mg.

Regarding `Cc1nc(NC(=O)N2CCC[C@H]2C(N)=O)sc1-c1ccnc(C(C)(C)C(F)(F)F)c1` [Compound X, (S)-Pyrrolidine-1,2-dicarboxylic acid 2-amide 1-({4-methyl-5-[2-(2,2,2-trifluoro-1,1-dimethyl-ethyl)-pyridin-4-yl]-thiazol-2-yl}-amide)], the IC50 in the series with CL-34, in the series with COLO 205, with HT-29, in the series on LS411N, in the series with OUMS-23 and in the series with RKO was over 2700 nM throughout. For the same compound, the IC50 with SNU-C5 and in the series on SW1417 was over 2700 nM each time.
